US11787785B2 (NOVARTIS AG, priority 2021, dated 2023)

Target: T1, WIZ protein (HiBit-WIZ fusion protein) (Homo sapiens, UniProt O95785+Q96SW2)
T1 construct: expressed in transfected cells
Assay: Quantification of WIZ protein levels in HiBit tag fusion protein assay (WIZ HiBit assay in 293T cells)
Type: cell-based
Parameters: remaining activity / Dmax: dose or concentration left out as unconfirmed
Details: for Dmax at 25 µM / remaining activity at 25 µM / Dmax / remaining activity: HEK-293T; for Dmax at 25 µM: 100 − Amax; for Dmax at 25 µM / remaining activity at 25 µM: 293T cells; for Dmax at 25 µM / Dmax: read-out: % degradation of WIZ (100 − Amax); for remaining activity at 25 µM: DMSO-normalized, curve-fitted percentage of WIZ-HiBit remaining at 25 uM; for remaining activity at 25 µM / remaining activity: read-out: WIZ Amax; for DC50: WIZ HiBit assay in 293T cells, 10-point, 5-fold dose response, highest concentration 25 μM, about 18 hours, read-out: WIZ AC50
Outline: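 HiBit-tagged WIZ (N-terminal tag, HSVTK promoter) stably expressed single-copy in 293T cells; 10-point 1:5 compound series, top 25 μM, ~18 h at 37 °C. Lytic HiBit/LgBit luminescence read; Amax = curve-fitted % WIZ-HiBit remaining at 25 μM, DMSO normalized to 100%.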

T1 sequence (O95785 whole entry, the tested form may be a part): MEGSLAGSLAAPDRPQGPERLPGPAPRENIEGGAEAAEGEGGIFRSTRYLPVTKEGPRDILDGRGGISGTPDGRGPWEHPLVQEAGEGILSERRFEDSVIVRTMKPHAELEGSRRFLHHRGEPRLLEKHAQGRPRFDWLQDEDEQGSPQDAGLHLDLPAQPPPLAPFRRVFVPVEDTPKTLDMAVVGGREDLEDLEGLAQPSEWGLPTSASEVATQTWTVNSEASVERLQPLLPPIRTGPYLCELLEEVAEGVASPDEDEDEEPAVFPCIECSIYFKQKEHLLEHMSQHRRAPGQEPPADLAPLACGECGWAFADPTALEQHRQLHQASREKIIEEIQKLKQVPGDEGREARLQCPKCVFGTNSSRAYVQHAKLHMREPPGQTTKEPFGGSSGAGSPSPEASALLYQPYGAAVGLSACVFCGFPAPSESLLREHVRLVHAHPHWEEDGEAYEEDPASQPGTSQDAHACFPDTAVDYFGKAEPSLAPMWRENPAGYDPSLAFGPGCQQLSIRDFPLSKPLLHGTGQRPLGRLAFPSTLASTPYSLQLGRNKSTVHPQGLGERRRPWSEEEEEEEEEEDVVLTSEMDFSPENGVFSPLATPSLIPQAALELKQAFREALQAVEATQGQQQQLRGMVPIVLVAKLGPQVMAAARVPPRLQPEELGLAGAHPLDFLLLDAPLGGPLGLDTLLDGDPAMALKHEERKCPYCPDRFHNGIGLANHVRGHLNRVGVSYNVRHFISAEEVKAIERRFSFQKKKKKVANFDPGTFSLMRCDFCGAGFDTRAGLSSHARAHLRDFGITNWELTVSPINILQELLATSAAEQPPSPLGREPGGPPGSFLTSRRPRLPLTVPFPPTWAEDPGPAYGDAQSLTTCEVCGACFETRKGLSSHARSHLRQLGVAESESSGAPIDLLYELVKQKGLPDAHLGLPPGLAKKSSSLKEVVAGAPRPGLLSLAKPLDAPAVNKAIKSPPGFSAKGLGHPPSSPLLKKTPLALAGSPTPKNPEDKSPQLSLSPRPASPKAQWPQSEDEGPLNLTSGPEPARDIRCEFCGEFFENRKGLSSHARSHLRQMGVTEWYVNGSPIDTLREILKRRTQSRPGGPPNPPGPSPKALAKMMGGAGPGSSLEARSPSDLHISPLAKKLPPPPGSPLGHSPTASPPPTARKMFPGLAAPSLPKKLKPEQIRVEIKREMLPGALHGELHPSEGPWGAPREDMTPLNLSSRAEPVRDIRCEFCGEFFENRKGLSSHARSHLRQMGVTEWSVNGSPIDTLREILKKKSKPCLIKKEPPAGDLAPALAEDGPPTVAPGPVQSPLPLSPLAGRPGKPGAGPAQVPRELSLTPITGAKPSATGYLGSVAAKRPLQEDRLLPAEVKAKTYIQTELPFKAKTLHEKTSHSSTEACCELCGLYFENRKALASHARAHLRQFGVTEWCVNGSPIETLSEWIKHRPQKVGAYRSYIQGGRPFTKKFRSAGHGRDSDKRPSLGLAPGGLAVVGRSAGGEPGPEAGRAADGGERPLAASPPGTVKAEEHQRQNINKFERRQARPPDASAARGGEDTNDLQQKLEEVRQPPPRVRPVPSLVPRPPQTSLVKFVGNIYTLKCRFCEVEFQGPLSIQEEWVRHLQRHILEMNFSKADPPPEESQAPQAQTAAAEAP
T1 sequence (Q96SW2 whole entry, the tested form may be a part): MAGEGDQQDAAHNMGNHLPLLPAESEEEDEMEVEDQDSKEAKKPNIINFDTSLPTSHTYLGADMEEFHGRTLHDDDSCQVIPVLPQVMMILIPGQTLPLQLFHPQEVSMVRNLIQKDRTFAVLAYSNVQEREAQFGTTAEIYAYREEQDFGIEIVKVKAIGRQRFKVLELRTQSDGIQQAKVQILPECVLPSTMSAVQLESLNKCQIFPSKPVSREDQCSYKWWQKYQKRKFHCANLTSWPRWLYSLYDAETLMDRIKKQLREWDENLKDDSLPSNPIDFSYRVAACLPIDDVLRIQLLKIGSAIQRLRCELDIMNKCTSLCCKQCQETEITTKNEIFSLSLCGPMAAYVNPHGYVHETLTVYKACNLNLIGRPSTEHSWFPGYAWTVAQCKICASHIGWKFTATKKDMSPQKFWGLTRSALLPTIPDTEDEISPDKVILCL
T1 sequence (Q16531 whole entry partner, the tested form may be a part): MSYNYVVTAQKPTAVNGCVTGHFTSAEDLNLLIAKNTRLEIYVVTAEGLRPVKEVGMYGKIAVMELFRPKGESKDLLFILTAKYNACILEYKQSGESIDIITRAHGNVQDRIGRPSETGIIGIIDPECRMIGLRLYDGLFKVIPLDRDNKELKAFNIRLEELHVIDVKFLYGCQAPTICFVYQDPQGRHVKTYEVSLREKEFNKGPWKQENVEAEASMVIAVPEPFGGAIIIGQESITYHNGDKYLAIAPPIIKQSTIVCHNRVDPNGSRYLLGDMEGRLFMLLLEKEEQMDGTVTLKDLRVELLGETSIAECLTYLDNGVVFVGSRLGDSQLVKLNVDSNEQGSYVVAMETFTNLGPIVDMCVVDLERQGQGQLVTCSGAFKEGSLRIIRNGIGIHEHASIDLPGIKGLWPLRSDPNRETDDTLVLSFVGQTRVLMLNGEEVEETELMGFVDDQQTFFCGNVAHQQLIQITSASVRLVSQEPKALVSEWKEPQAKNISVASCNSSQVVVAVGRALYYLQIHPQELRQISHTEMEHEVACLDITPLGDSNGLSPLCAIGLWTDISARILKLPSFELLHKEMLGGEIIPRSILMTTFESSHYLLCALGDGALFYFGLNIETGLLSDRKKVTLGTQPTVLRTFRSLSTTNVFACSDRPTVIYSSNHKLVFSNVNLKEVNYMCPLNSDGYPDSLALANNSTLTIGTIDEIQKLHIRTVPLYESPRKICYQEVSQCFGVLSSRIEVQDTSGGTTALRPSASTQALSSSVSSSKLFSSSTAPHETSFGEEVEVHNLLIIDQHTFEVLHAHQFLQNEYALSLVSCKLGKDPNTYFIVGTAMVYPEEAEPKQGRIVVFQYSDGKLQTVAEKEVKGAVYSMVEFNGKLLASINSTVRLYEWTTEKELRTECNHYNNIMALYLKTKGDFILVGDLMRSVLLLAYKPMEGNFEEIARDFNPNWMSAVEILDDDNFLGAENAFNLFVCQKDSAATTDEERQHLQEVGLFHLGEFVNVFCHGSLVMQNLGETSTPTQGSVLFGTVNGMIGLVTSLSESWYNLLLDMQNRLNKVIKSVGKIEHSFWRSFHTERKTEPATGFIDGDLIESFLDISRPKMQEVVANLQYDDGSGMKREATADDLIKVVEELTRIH

Compound: COc1ccc(CN2CCC(Cc3ccn4ncc(N5CCC(=O)NC5=O)c4c3)CC2)cc1 [Example 61, 1-(5-((1-(4-methoxybenzyl)piperidin-4-yl)methyl)pyrazolo[1,5-a]pyridin-3-yl)dihydropyrimidine-2,4(1H,3H)-dione]
- Dmax at 25 µM: 62%
- remaining activity at 25 µM: 38%
- DC50: 1740 nM

Compound: CC(C)(CN1CCC(Cc2ccn3ncc(N4CCC(=O)NC4=O)c3c2)CC1)C(F)(F)F [Example 62, 1-(5-((1-(3,3,3-trifluoro-2,2-dimethylpropyl)piperidin-4-yl)methyl)pyrazolo[1,5-a]pyridin-3-yl)dihydropyrimidine-2,4(1H,3H)-dione]
- Dmax at 25 µM: 73%
- remaining activity at 25 µM: 27%
- DC50: 49 nM

Compound: O=C1CCN(c2cnn3ccc(CC4CCN(CC5CCNCC5)CC4)cc23)C(=O)N1 [Example 63]
- Dmax at 25 µM: 36%
- remaining activity at 25 µM: 64%
- DC50: > 25000 nM

Compound: CO[C@H]1CC[C@H](CN2CCC(Cc3ccn4ncc(N5CCC(=O)NC5=O)c4c3)CC2)CC1 [Example 64, 1-(5-((1-(((1r,4r)-4-methoxycyclohexyl)methyl)piperidin-4-yl)methyl)pyrazolo[1,5-a]pyridin-3-yl)dihydropyrimidine-2,4(1H,3H)-dione]
- Dmax at 25 µM: 94%
- remaining activity at 25 µM: 6%
- DC50: 43 nM

Compound: CO[C@H]1CC[C@@H](CN2CCC(Cc3ccn4ncc(N5CCC(=O)NC5=O)c4c3)CC2)CC1 [Example 65, 1-(5-((1-(((1s,4s)-4-methoxycyclohexyl)methyl)piperidin-4-yl)methyl)pyrazolo[1,5-a]pyridin-3-yl)dihydropyrimidine-2,4(1H,3H)-dione]
- Dmax at 25 µM: 94%
- remaining activity at 25 µM: 6%
- DC50: 32 nM

Compound: O=C1CCN(c2cnn3ccc(CC4C[C@H]5CC[C@@H](C4)N5CC4CCCCC4)cc23)C(=O)N1 (stereo partly drawn) [Example 66, 1-(5-(((1R,5S)-8-(cyclohexylmethyl)-8-azabicyclo[3.2.1]octan-3-yl)methyl)pyrazolo[1,5-a]pyridin-3-yl)dihydropyrimidine-2,4(1H,3H)-dione]
- Dmax at 25 µM: 72%
- remaining activity at 25 µM: 28%
- DC50: 195 nM

Compound: CC(C)CN1[C@@H]2CC[C@H]1CC(Cc1ccn3ncc(N4CCC(=O)NC4=O)c3c1)C2 (stereo partly drawn) [Example 67, 1-(5-(((1R,5S)-8-isobutyl-8-azabicyclo[3.2.1]octan-3-yl)methyl)pyrazolo[1,5-a]pyridin-3-yl)dihydropyrimidine-2,4(1H,3H)-dione]
- Dmax at 25 µM: 61%
- remaining activity at 25 µM: 39%
- DC50: 561 nM

Compound: O=C1CCN(c2cnn3ccc(CC4C[C@H]5CC[C@@H](C4)N5Cc4cccnc4)cc23)C(=O)N1 (stereo partly drawn) [Example 68, 1-(5-(((1R,5S)-8-(pyridin-3-ylmethyl)-8-azabicyclo[3.2.1]octan-3-yl)methyl)pyrazolo[1,5-a]pyridin-3-yl)dihydropyrimidine-2,4(1H,3H)-dione]
- Dmax at 25 µM: 57%
- remaining activity at 25 µM: 43%
- DC50: 384 nM

Compound: COc1ccnc(N2CCC(Cc3ccn4ncc(N5CCC(=O)NC5=O)c4c3)CC2)n1 [Example 69, 1-(5-((1-(4-methoxypyrimidin-2-yl)piperidin-4-yl)methyl)pyrazolo[1,5-a]pyridin-3-yl)dihydropyrimidine-2,4(1H,3H)-dione]
- Dmax: 35%
- remaining activity: 65%
- DC50: 350 nM

Compound: CC(C)C(C)N1CCC(Cc2ccn3ncc(N4CCC(=O)NC4=O)c3c2)CC1 (stereo not drawn) [Example 70, 1-(5-((1-(3-methylbutan-2-yl)piperidin-4-yl)methyl)pyrazolo[1,5-a]pyridin-3-yl)dihydropyrimidine-2,4(1H,3H)-dione]
- Dmax at 25 µM: 83%
- remaining activity at 25 µM: 17%
- DC50: 21 nM

Compound: CC(C)CN1CC[C@H](Cc2ccn3ncc(N4CCC(=O)NC4=O)c3c2)C[C@@H]1C [Example 72]
- Dmax at 25 µM: 87%
- remaining activity at 25 µM: 13%
- DC50: 6 nM

Compound: C[C@H]1C[C@@H](Cc2ccn3ncc(N4CCC(=O)NC4=O)c3c2)CCN1CC1CCOCC1 [Example 73]
- Dmax at 25 µM: 89%
- remaining activity at 25 µM: 11%
- DC50: 3 nM

Compound: C[C@H]1C[C@@H](Cc2ccn3ncc(N4CCC(=O)NC4=O)c3c2)CCN1CC1CCC(F)(F)CC1 [Example 74]
- Dmax at 25 µM: 90%
- remaining activity at 25 µM: 10%
- DC50: 3 nM

Compound: C[C@@H]1C[C@H](Cc2ccn3ncc(N4CCC(=O)NC4=O)c3c2)CCN1CC1CCOCC1 [Example 75]
- Dmax at 25 µM: 81%
- remaining activity at 25 µM: 19%
- DC50: 98 nM

Compound: C[C@@H]1C[C@H](Cc2ccn3ncc(N4CCC(=O)NC4=O)c3c2)CCN1CC1CCCCC1 [Example 76]
- Dmax at 25 µM: 81%
- remaining activity at 25 µM: 19%
- DC50: 36 nM

Compound: CC(C)CN1CC[C@@H](Cc2ccn3ncc(N4CCC(=O)NC4=O)c3c2)C[C@H]1C [Example 77]
- Dmax at 25 µM: 68%
- remaining activity at 25 µM: 32%
- DC50: 77 nM

Compound: C[C@@H]1C[C@H](Cc2ccn3ncc(N4CCC(=O)NC4=O)c3c2)CCN1CC1CCC(F)(F)CC1 [Example 78]
- Dmax at 25 µM: 83%
- remaining activity at 25 µM: 17%
- DC50: 10 nM

Compound: CC(C)CN1CCC(Cc2ccn3ncc(N4CCC(=O)NC4=O)c3c2)CC1(C)C (stereo not drawn) [Example 79, 1-(5-((1-isobutyl-2,2-dimethylpiperidin-4-yl)methyl)pyrazolo[1,5-a]pyridin-3-yl)dihydropyrimidine-2,4(1H,3H)-dione]
- Dmax at 25 µM: 65%
- remaining activity at 25 µM: 35%
- DC50: 65 nM

Compound: O=C1CCN(c2cnn3ccc(CC4CCN(S(=O)(=O)CC5CCCCC5)CC4)cc23)C(=O)N1 [Example 80, 1-(5-((1-((cyclohexylmethyl)sulfonyl)piperidin-4-yl)methyl)pyrazolo[1,5-a]pyridin-3-yl)dihydropyrimidine-2,4(1H,3H)-dione]
- Dmax: 88%
- remaining activity: 12%
- DC50: 49 nM

Compound: O=C1CCN(c2cnn3ccc(CC4CCN(S(=O)(=O)C5CCCCC5)CC4)cc23)C(=O)N1 [Example 81]
- Dmax at 25 µM: 92%
- remaining activity at 25 µM: 8%
- DC50: 15 nM

Compound: O=C1CCN(c2cnn3ccc(CC4CCN(S(=O)(=O)C5CCCC5)CC4)cc23)C(=O)N1 [Example 82]
- Dmax at 25 µM: 90%
- remaining activity at 25 µM: 10%
- DC50: 33 nM

Compound: O=C1CCN(c2cnn3ccc(CC4CCN(S(=O)(=O)C5CCOCC5)CC4)cc23)C(=O)N1 [Example 83]
- Dmax at 25 µM: 89%
- remaining activity at 25 µM: 11%
- DC50: 76 nM

Compound: O=C1CCN(c2cnn3ccc(CC4CCN(S(=O)(=O)CC5CC5)CC4)cc23)C(=O)N1 [Example 84]
- Dmax at 25 µM: 87%
- remaining activity at 25 µM: 13%
- DC50: 55 nM

Compound: CC(C)S(=O)(=O)N1CCC(Cc2ccn3ncc(N4CCC(=O)NC4=O)c3c2)CC1 [Example 85]
- Dmax at 25 µM: 83%
- remaining activity at 25 µM: 17%
- DC50: 38 nM

Compound: CCC(C)S(=O)(=O)N1CCC(Cc2ccn3ncc(N4CCC(=O)NC4=O)c3c2)CC1 (stereo not drawn) [Example 86]
- Dmax at 25 µM: 80%
- remaining activity at 25 µM: 20%
- DC50: 27 nM

Compound: CC(C)CS(=O)(=O)N1CCC(Cc2ccn3ncc(N4CCC(=O)NC4=O)c3c2)CC1 [Example 87]
- Dmax at 25 µM: 79%
- remaining activity at 25 µM: 21%
- DC50: 25 nM

Compound: O=C1CCN(c2cnn3ccc(CC4CCN(S(=O)(=O)Cc5ccccc5)CC4)cc23)C(=O)N1 [Example 88]
- Dmax at 25 µM: 78%
- remaining activity at 25 µM: 22%
- DC50: 181 nM
